Each block holds one compound with its values, some of them ahead of it.
Key:
[1] = test system: KMS11 high-risk MM cell line; test: MTT cell proliferation inhibition, KMS11; format: cell-based; conditions: Homo sapiens, KMS-11, KMS11, t(4;14), del17, 48 hours, read-out: IC50, cell proliferation inhibitory activity, KMS11
Experimental: (§1) For examination of cell proliferation inhibitory activity, high-risk MM cell lines (KMM1, KMS11, KMS21, KMS26, KMS28, KMS34) established by Takemi Otsuki et al., of Kawasaki Medical School were used (Otsuki, T. et al., Int. J. Oncol., 15: 1205-1212, 1999). […] The genetic abnormality of these cell types, and in particular deletion of p53 gene were examined by FISH method (Chang, H. Blood, 105: 358-360, 2005) (WO2010/061862A1). […] These high-risk MM cell lines were treated with drugs such as TC11, HOEtO-TC11, PEG11(E)-TC11, and PEG11(O)-TC11 at arbitrary concentrations. […] Specifically, each high-risk MM cell line was prepared at a concentration of 2×10^5 cells/ml, and then seeded in an amount of 50 μl (1×10^4 cells) per well. After 24 hours, drugs such as TC11, HOEtO-TC11, PEG11(E)-TC11, and PEG11(O)-TC11 having arbitrary concentrations were added. At 48 hours after addition of each drug, 10 μL each of an MTT labeling reagent in Cell Proliferation Kit I [MTT] (Roche Diagnostics, Basel, Switzerland) was added. After 4 hours of treatment at 37° C., 100 μL each of solution buffer was added and then left to stand overnight at 37° C. Absorbance was measured using a microplate reader Infinit™ M1000 (Tecan, Maennedorf, Switzerland) at a wavelength of 570 nm. Cell viability was found from an absorbance ratio using absorbance at 0 μM designated as 100%. IC50 was calculated from a semi-logarithmic chart using Microsoft (registered trademark) Excel.

[2] = test system: MUM24 MM cell line; test: MTT cell proliferation inhibition, MUM24; format: cell-based; conditions: Homo sapiens, MUM24, t(4;14), del13, del17, 48 hours, read-out: IC50, cell proliferation inhibitory activity, MUM24
[3] = test system: KMM1 high-risk MM cell line; test: MTT cell proliferation inhibition, KMM1; format: cell-based; conditions: Homo sapiens, KMM-1, KMM1, t(6;14), t(8;14), del17, 48 hours, read-out: IC50, cell proliferation inhibitory activity, KMM1
Experimental: as §1

[4] = test system: high-risk MM cell lines; test: MTT cell proliferation inhibition, panel of high-risk MM cell lines; format: cell-based; conditions: Homo sapiens, range over the cell lines of Table 2, 48 hours
Experimental: as §1

[5] = Water solubility of drugs (saturation concentration by HPLC); format: physicochemical; conditions: 100 mM Tris-HCl (pH 7.5); for Water solubility: 25° C., saturation concentration; for Water solubility, relative ratio (numerals in parentheses): relative to TC11
[6] = target: T1, cereblon (CRBN) (Homo sapiens, UniProt Q96SW2); test: Surface plasmon resonance biosensor (BIACORE 3000) interaction with cereblon; format: binding; conditions: measured at 1 μM, 2 μM and 10 μM, FIG. 9C
T1 construct: recombinant full-length CRBN prepared by the above method was reacted with the beads; T7 tag (N); FLAG tag (C); made in house; host or cells: 293T cells (pcDNA3.3 vector), RIPA extract purified on Ni Sepharose excel
T1 sequence (Q96SW2 whole entry): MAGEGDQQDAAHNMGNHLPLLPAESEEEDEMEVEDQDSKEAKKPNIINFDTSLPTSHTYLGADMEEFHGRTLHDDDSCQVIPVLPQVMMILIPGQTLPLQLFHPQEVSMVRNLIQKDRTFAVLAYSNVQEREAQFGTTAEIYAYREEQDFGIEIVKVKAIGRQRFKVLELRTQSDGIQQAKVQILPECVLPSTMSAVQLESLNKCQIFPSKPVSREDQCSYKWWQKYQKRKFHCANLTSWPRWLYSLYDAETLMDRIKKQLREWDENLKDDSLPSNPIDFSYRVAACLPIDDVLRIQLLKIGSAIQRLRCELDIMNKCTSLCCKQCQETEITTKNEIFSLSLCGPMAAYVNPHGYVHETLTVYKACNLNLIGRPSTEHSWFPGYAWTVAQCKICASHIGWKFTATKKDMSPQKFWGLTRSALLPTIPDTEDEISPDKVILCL

[7] = test system: KMS26 high-risk MM cell line; test: MTT cell proliferation inhibition, KMS26; format: cell-based; conditions: Homo sapiens, KMS-26, KMS26, t(4;14), t(4;16), del17, 48 hours, read-out: IC50, cell proliferation inhibitory activity, KMS26
Experimental: as §1

[8] = test system: KMS34 high-risk MM cell line; test: MTT cell proliferation inhibition, KMS34; format: cell-based; conditions: Homo sapiens, KMS-34, KMS34, t(4;14), del17, 48 hours, read-out: IC50, cell proliferation inhibitory activity, KMS34
Experimental: as §1

[9] = test system: KMS11 xenograft; test: Antitumor effect on KMS11 cancer-bearing mice (Example 17); format: in vivo, ICR/SCID mice
Experimental: KMS11 was administered to 5-week-old ICR/SCID mice at 2×10^7 cells/mouse via hypodermic injection. Tumor volumes were measured over time, and the day on which the tumor volume exceeded 50 mm^3 was designated as Day 1 and observation was performed for 9 days. […] On the day of administration, these solutions were diluted 10-fold with physiological saline while stirring with Vortex, and then intraperitoneally administered. Tumor volume was calculated by the following formula.
Tumor volume (mm^3)=major axis×minor axis×minor axis×π/6=major axis×minor axis×minor axis×0.5236

[10] = test system: KMS21 high-risk MM cell line; test: MTT cell proliferation inhibition, KMS21; format: cell-based; conditions: Homo sapiens, KMS21, t(11;14), 48 hours, read-out: IC50, cell proliferation inhibitory activity, KMS21
Experimental: as §1
Moreover, the concentration dependency of the in vitro cell proliferation inhibitory activity of TC11, and its derivatives, PEG11(E)-TC11 and HOEtO-TC11 against high-risk MM cell line (KMS21) was examined in detail (FIG. 4). […] Such a phenomenon was similarly observed for other high-risk MM cell lines, KMS11, KMS34, and MUM24.

[11] = test system: KMS34 high-risk MM cell line; test: WST-1 cell proliferation inhibition (Example 8), KMS34; format: cell-based; conditions: Homo sapiens, KMS-34, WST-1, 48 hours, read-out: IC50, cell proliferation inhibitory activity, KMS34
Experimental: (§2) Similar to Example 7, high-risk MM cell lines were treated with drugs, TC11 and PEG5(E)-TC11 at arbitrary concentrations. […] Specifically, each high-risk MM cell line was prepared at 5×10^5 cells/ml, and then seeded at 50 μl per well (2.5×10^4 cells). Drugs such as TC11, and PEG5(E)-TC11 were added to wells at arbitrary concentrations. WST-1 reagent was added at 48 hours after addition of drugs. After 1 hour of reaction at 37° C. in a CO2 incubator, absorbance was measured at a wavelength of 450 nm using a microplate reader. Cell viability was found from an absorbance ratio using absorbance at 0 μM designated as 100%. IC50 was calculated from a semi-logarithmic chart using Microsoft (registered trademark) Excel.

[12] = test system: KMS21 high-risk MM cell line; test: WST-1 cell proliferation inhibition (Example 8), KMS21; format: cell-based; conditions: Homo sapiens, WST-1, 48 hours, read-out: IC50, cell proliferation inhibitory activity, KMS21
Experimental: as §2

[13] = test system: KMM1 high-risk MM cell line; test: WST-1 cell proliferation inhibition (Example 8), KMM1; format: cell-based; conditions: Homo sapiens, KMM-1, WST-1, 48 hours, read-out: IC50, cell proliferation inhibitory activity, KMM1
Experimental: as §2

[14] = test system: KMS11 high-risk MM cell line; test: WST-1 cell proliferation inhibition (Example 8), KMS11; format: cell-based; conditions: Homo sapiens, KMS-11, WST-1, 48 hours, read-out: IC50, cell proliferation inhibitory activity, KMS11
Experimental: as §2

[15] = test system: high-risk MM cell lines; test: WST-1 cell proliferation inhibition (Example 8), panel of high-risk MM cell lines; format: cell-based; conditions: Homo sapiens; range over the cell lines of Table 3; WST-1, 48 hours
Experimental: as §2

[16] = target: T1, cereblon (CRBN); test: Pull-down assay of cereblon with biotinylated drug on streptavidin beads; format: binding; conditions: 30° C., 30 minutes, FIG. 9A
Experimental: CRBN was prepared as follows. A T7 tag was added 5′-upstream of, and a FLAG tag and a histidine tag were added 3′-downstream of a full-length CRBN gene. The gene was introduced into a pcDNA3.3 expression vector (Invitrogen), thereby constructing a plasmid DNA. Next, a Kozak sequence was added 5′-upstream of the T7 tag using a KOD-Plus-Mutagenesis Kit (TOYOBO). The plasmid DNA was transfected into 293T cells. After 4 days of culture at 37° C. with 5% CO2, cells were extracted with a RIPA buffer (Thermo), and then the extracted fraction was purified using Ni Sepharose excel (GE Healthcare). Since the purified fraction contained imidazole, TBS (Nacalai Tesque) was subjected to buffer exchange. […] Centrifugation was performed to separate the resultants into a flow-through (F) fraction and a bead (B) fraction. Protein bands corresponding to CRBN were separated by SDS-PAGE, and then detected by Western blot. […] Note that “I” indicates “Input fraction”.

Structure (SMILES): CC(C)c1cccc(C(C)C)c1N1C(=O)c2cc(N)c(OCCO[C@@H]3OC(CO)[C@@H](O)[C@H](O)C3O)cc2C1=O (stereo partly drawn) [Glu-TC11]
- Water solubility [5]: 0.082 g/100 ml
- Water solubility, relative ratio (numerals in parentheses) [5]: 41 ×

Structure (SMILES): Nc1cccc2c1CN(C1CCC(=O)NC1=O)C2=O (stereo not drawn) [lenalidomide, reference compound]
- In vivo anti-tumor effect compared to HOEtO-TC11 ([9]; lenalidomide 49.9 mg/kgBW i.p., KMS11 xenograft): clearly weaker than that of HOEtO-TC11

Structure (SMILES): O=C1CCC(N2C(=O)c3ccccc3C2=O)C(=O)N1 (stereo not drawn) [thalidomide]
- Binding of CRBN to drug immobilized on beads (pull-down, Western blot) [16]: bound

Now from value to compound, other results behind:

- Water solubility [5]: 0.027 g/100 ml
- Water solubility, relative ratio (numerals in parentheses) [5]: 13.5 ×
- Binding to CRBN (SPR sensorgram) [6]: never bind to CRBN
Structure (SMILES): CC(C)c1cccc(C(C)C)c1N1C(=O)c2cc(N)c(OCCO)cc2C1=O [HOEtO-TC11, hydroxyethoxy-TC11]
- IC50 [1]: 3.9 µM
- IC50 [2]: 4 µM
- IC50 [3]: 7.7 µM
- IC50 [4]: 1 to 8 µM
- IC50 [7]: 1.9 µM
- IC50 [8]: 4.1 µM
- KMS-11 tumor growth, level relative to the control ([9]; Day 9, HOEtO-TC11 71.1 mg/kg BW i.p.): about ⅓
- KMS-11 tumor growth, level relative to TC11 ([9]; Day 9, HOEtO-TC11 71.1 mg/kg BW i.p. vs TC11 60 mg/kgBW): about a half
- KMS-11 tumor growth compared to control mice ([9]; Day 9, i.p., equimolar to TC11 60 mg/kgBW): tumor growth was suppressed
- IC50 [10]: 2.4 µM

- Water solubility [5]: 0.002 g/100 ml
- Water solubility, relative ratio (numerals in parentheses) [5]: 1 ×
Structure (SMILES): COCCOCCOCCOCCOCCC(=O)OCCOc1cc2c(cc1N)C(=O)N(c1c(C(C)C)cccc1C(C)C)C2=O [PEG5(E)-TC11]
- IC50 [11]: 6.5 µM
- IC50 [12]: 1.2 µM
- IC50 [13]: 3.6 µM
- IC50 [14]: 1.4 µM
- IC50 [15]: 1.3 to 4.6 µM

— patent US20190315775A1, “MODIFIED […] AND PHARMACEUTICAL COMPOSITION HAVING SAME AS ACTIVE INGREDIENT” (KEIO UNIVERSITY, priority 2016, published 2019)
